How the values were obtained:
[1] = parameters: species or system BALB/c mice; conditions: mouse, in vivo
Method: Kidney Function. […] Blood samples were obtained from the retroorbital venous plexus in the mice. Serum creatinine and BUN were measured daily in pilot studies (data not shown) and in more extensive studies at the time of maximally observed toxicity : Day 4.
Liver Function. […] Control groups were treated with ebselen or the vehicle.

[2] = Acute toxicity (LD0) in rats; type: in vivo; conditions: acute investigations
Method: (§1) Since, in contrast to the previously known and applied selenium compounds, Ebselen is low in toxicity (LD0 > 1000 mg/kg body weight in acute investigations in mice and rats) and the maximum doses to be administered lie greatly below this value, administration to patients can be regarded as being without danger.

LLC-PK1 cells = assay: In-vitro toxicity of cisplatin in LLC-PK1 cells (LDH-leakage, protein remaining attached to the culture plate); type: cell-based, porcine
Method: LLC-PK1 are porcine kidney cells which express many characteristics of proximal tubule epithelium. […] In this cell line the LDH-leakage can be used as criterium for cell toxicity.
Cells were seeded in 24 well culture dishes ([…]) and allowed to grow to confluence (2.4 x 10^5 cell/cm^2) over 8 days in serum containing 5 % fetal calf serum. The cells were then maintained in serum-free medium for 2 days before drug treatment. Only monolayers in which dome formation occurred were used for the experiments.
Ebselen was dissolved in 2% dimethylsulfoxide in the sterile salt solution.
After incubation, the monolayers were washed 3 times with physiological saline to remove residual drug. Subsequently, the cells were grown in medium containing 5% fetal calf serum. Cell viability was assessed at different timepoints. In control experiments, monolayers were exposed to the vehicle in stead of drugs.
In control experiments, ebselen was replaced by the vehicle.

MPC 11 tumor cells = assay: Nephrotoxicity and antitumor activity in mice inoculated with MPC 11 tumor cells; type: in vivo, BALB/c mice; conditions: for T/C: T/C=MST treated/ MST control
Excerpt: (§2) Tumors. MPC 11 tumor cells were obtained from the institute of Pathology, University of Utrecht, The Netherlands. The MPC 11 tumor originated as a plasmacytoma, and was originally obtained from Dr. D. Catty, Birmingham, United Kingdom. The tumor cells were maintained by weekly passages in BALB/c mice. Freshly harvested ascitic cells were used in the experiments. Cells were counted with a hemocytometer. Transplantable Prima mammary tumor cells were obtained from the Radiobiological Institute TNO, Rijswijk, The Netherlands. The Prima tumor originated as a mammary carcinoma, induced by forced breeding in BALB/c mice bearing murine mammary tumor virus. The Prima tumor cell-line was cultured in vitro in standard Dulbecco's modification of Minimal Essential Medium (Gibco, Paisley, United Kingdom), supplemented with L-glutamine (500 mg/l), 2-mercapto-ethanol (60 umol/l) and 10% fetal calf serum (Flow Laboratories, Zwanenburg, The Netherlands).
(§3) Laboratory Animals. Female BALB/c mice were obtained from the Central Institute for the Breeding of Laboratory Animals/Harlan Sprague-Dawley (CPB/HSD), Zeist, The Netherlands. The mice were 8 weeks of age and weighed 18-20 g at the start of the experiments. All animals were provided with standard laboratory food (SRMA chow, Hope Farms, Woerden, The Netherlands) and water ad libitum.
(§4) Treatment. Animals were divided at random into groups of 8. […] Ebselen was dissolved in f a mixture of dimethylsulfoxide/polyethyleneglycol/physiological saline (1/4/20) and administered i.p. in a volume of 0.6 ml.
Evaluation of Antitumor Activity. […] Control groups were treated with ebselen or the vehicle. Mice were examined daily for occurrence of tumors. The experiments were terminated on Day 42 and median survival times (MSTs) were calculated.
(§5) Statistics. Student's test, unpaired, was used to evaluate the significance of differences between experimental groups. The level of significance was set at P < 0.05.

Prima breast tumor cells = assay: Nephrotoxicity and antitumor activity in mice inoculated with Prima breast tumor cells; type: in vivo, BALB/c mice; conditions: for T/C Day 15: T/C = mean tumor weight treated/control mice; for Incidence of tumors Day 8: by palpation
Excerpt: as §2, §3, §4
Control groups were treated with ebselen or the vehicle. The occurrance of tumors was examined daily by palpation. The experiments were terminated on Day 15 when the tumors were excised and weighed.
as §5

[3] = Cisplatin-induced nephrotoxicity in mice (kidney function: BUN, serum creatinine); type: in vivo, BALB/c mice; conditions: for Effect on cisplatin-induced increase of BUN and serum creatinine: Day 4
Method: as §3, §4
Kidney Function. […] Blood samples were obtained from the retroorbital venous plexus in the mice.
as §5

[4] = Acute toxicity (LD0) in mice; type: in vivo; conditions: acute investigations
Method: as §1

[5] = Histology of kidneys and retroperitoneal ganglionic tissue; type: in vivo, BALB/c mice; conditions: cisplatin alone versus cisplatin and ebselen given 1 h before
Method: Histology. Mice were sacrificed four days after treatment with cisplatin alone or Ebselen and cisplatin. Control groups were treated with Ebselen alone or the vehicle. Kidneys and livers were removed and processed for light microscopy. Sections of 6 um thickness were cut and stained in hematoxylin : eosin. All slides were examined without prior knowledge of the treatment given to the animal from which the specimen under investigation was taken.

[6] = Cisplatin 11.5 mg/kg alone, n=8

Structure (SMILES): O=c1c2ccccc2[se]n1-c1ccccc1 [Ebselen, 2-phenyl-1,2-benzisoselenazol-3(2H)-one]
- Functional liver- or kidney-damage [1]: did not cause functional liver- or kidney-damage
- LD0 [2]: > 1000 mg/kg body weight
- Cell viability versus cells not pre-exposed (time course) (LLC-PK1 cells; 10 uM Ebselen 1 h, then 0.4 mM cisplatin 1 h, whole period up till 72 h): significantly higher
- Ebselen concentration of highest protection (LLC-PK1 cells; pre-incubation 1 h before cisplatin, concentration-dependent): 15 µM
- Protection from cisplatin-induced decrease in viability (LLC-PK1 cells; pre-incubation with Ebselen 5-15 uM for 1 h, then 0.2 or 0.4 mM cisplatin 1 h, t = 72 h): protected the cells from a decrease in viability
- Protection from cisplatin-induced decrease in viability (LLC-PK1 cells; pre-incubation with ebselen, cisplatin 0.8 mM for 1 h): could not protect the cells against the decrease in viability
- T/C (MPC 11 tumor cells; Ebselen 10.0 mg/kg alone): 106%
- Incidence of tumors Day 7 (MPC 11 tumor cells; Ebselen 10.0 mg/kg alone, n=8): 100%
- MST (MPC 11 tumor cells; Ebselen 10.0 mg/kg alone, n=8): 17 ± 2 days
- Survival Day 7 (MPC 11 tumor cells; Ebselen 10.0 mg/kg alone, n=8): 100%
- Influence on the antitumor activity of cisplatin (MPC 11 tumor cells; MPC 11 plasmacytoma, ebselen i.p. 1 h prior to cisplatin): did not reduce the antitumor activity of cisplatin
- MST versus vehicle control (MPC 11 tumor cells; ebselen alone): identical to that of the control group
- Influence on the antitumor activity of cisplatin (Prima breast tumor cells; Ebselen 10 mg/kg 1 h before cisplatin): did not reduce the antitumor activity of cisplatin
- Efficacy against the Prima tumor (Prima breast tumor cells; Ebselen 10 mg/kg alone): not effective
- T/C Day 15 (Prima breast tumor cells; Ebselen 10.0 mg/kg alone): 100%
- Incidence of tumors Day 8 (Prima breast tumor cells; Ebselen 10.0 mg/kg alone): 100%
- Mean tumor weight Day 15 (Prima breast tumor cells; Ebselen 10.0 mg/kg alone, n=8): 1.5 ± 0.4 g
- Survival Day 8 (Prima breast tumor cells; Ebselen 10.0 mg/kg alone, n=8): 100%
- Effect on cisplatin-induced increase of BUN and serum creatinine ([3]; Ebselen 1 h before cisplatin 11.5 to 19.0 mg/kg): prevented the increase in levels of BUN and serum creatinine at all cisplatin doses tested with exception of the highest dose
- Ebselen dose of maximal protection against cisplatin-induced nephrotoxicity ([3]; cisplatin 14.5 mg/kg, ebselen i.p. 1 h before): 10.0 mg/kg
- Effect on cisplatin-induced increase of BUN and serum creatinine ([3]; ebselen 1 h after cisplatin): a protective effect against cisplatin-induced elevations of the levels of BUN and serum creatinine was also observed, but less marked
- LD0 [4]: > 1000 mg/kg body weight

Structure (SMILES): N.N.[Cl][Pt][Cl] [Cisplatin]
- Time at which decrease in cell viability was first observed (LLC-PK1 cells; cisplatin 0.4 mM for 1 h, time after termination of the incubation): 24 h
- T/C (MPC 11 tumor cells; Cisplatin 4.0 mg/kg alone): 150%
- Incidence of tumors Day 7 (MPC 11 tumor cells; Cisplatin 4.0 mg/kg alone, n=8): 100%
- MST (MPC 11 tumor cells; Cisplatin 4.0 mg/kg alone, n=8): 24 ± 4 days
- T/C (MPC 11 tumor cells; Cisplatin 6.5 mg/kg alone): 181%
- Incidence of tumors Day 7 (MPC 11 tumor cells; Cisplatin 6.5 mg/kg alone, n=8): 100%
- MST (MPC 11 tumor cells; Cisplatin 6.5 mg/kg alone, n=8): 29 ± 4 days
- T/C (MPC 11 tumor cells; Cisplatin 9.0 mg/kg alone): >300%
- Incidence of tumors Day 7 (MPC 11 tumor cells; Cisplatin 9.0 mg/kg alone, n=8): 0%
- MST (MPC 11 tumor cells; Cisplatin 9.0 mg/kg alone, n=8): >30 days
- T/C (MPC 11 tumor cells; Cisplatin 11.5 mg/kg alone): >300%
- Incidence of tumors Day 7 (MPC 11 tumor cells; [6]): 0%
- MST (MPC 11 tumor cells; [6]): >48 days
- Incidence of tumors Day 7 (MPC 11 tumor cells; Cisplatin 14.5 mg/kg alone, n=8): 0%
- T/C Day 15 (Prima breast tumor cells; Cisplatin 6.5 mg/kg alone): 93%
- Incidence of tumors Day 8 (Prima breast tumor cells; Cisplatin 6.5 mg/kg alone): 100%
- Mean tumor weight Day 15 (Prima breast tumor cells; Cisplatin 6.5 mg/kg alone, n=8): 1.4 ± 0.2 g
- T/C Day 15 (Prima breast tumor cells; Cisplatin 9.0 mg/kg alone): 47%
- Incidence of tumors Day 8 (Prima breast tumor cells; Cisplatin 9.0 mg/kg alone): 0%
- Mean tumor weight Day 15 (Prima breast tumor cells; Cisplatin 9.0 mg/kg alone, n=8): 0.7 ± 0.4 g
- T/C Day 15 (Prima breast tumor cells; Cisplatin 11.5 mg/kg alone): 28%
- Incidence of tumors Day 8 (Prima breast tumor cells; Cisplatin 11.5 mg/kg alone): 0%
- Mean tumor weight Day 15 (Prima breast tumor cells; [6]): 0.42 ± 0.08 g
- T/C Day 15 (Prima breast tumor cells; Cisplatin 14.5 mg/kg alone): 7%
- Incidence of tumors Day 8 (Prima breast tumor cells; Cisplatin 14.5 mg/kg alone): 0%
- Efficacy against the Prima mammary tumor (Prima breast tumor cells; cisplatin 9.0 and 11.5 mg/kg): effective
- Mice with tumors as assessed by palpation on Day 7 (Prima breast tumor cells; cisplatin […] alone, n=8): None
- Damage to retroperitoneal ganglionic cells [5]: more pronounced

Source: patent EP0542807B1, “USE OF 2-PHENYL-1,2-BENZISOSELENAZOL-3(2H)-ONE” (RHONE-POULENC RORER GMBH, priority 1990, dated 1992)
